Measurements as given in ChEMBL document CHEMBL1159210, “The arenarans, sesquiterpene ethers from the marine sponge Dysidea arenaria” (J Nat Prod, 1995).
Converted amounts (≈) assume the structure as drawn. The source made the active and inactive calls. The rule behind the calls is not given here.

Key:
Assay type in all cases: functional, cell-based
HCT-29 = test: Cytotoxicity against human HCT29 cells
P388 = test: Cytotoxicity against mouse P388 cells
HT-29 = test: Cytotoxicity against human HT-29 cells
A549 = test: Cytotoxicity against human A549 cells

Question: For CC1(C)CCC[C@]2(C)OC[C@H]3O[C@@]3(C)CC[C@@H]12, which Activity (HCT-29) is on record?
Answer: The Activity was “inactive”.

Question: What about the Activity (P388) of the same compound?
Answer: The Activity was “inactive”.

Question: And the Activity (HT-29)?
Answer: Its Activity is “inactive”.

Question: And the Activity (A549)?
Answer: Its Activity is “inactive”.

Question: With C/C1=C/CO[C@@]2(C)CCCC(C)(C)[C@@H]2CC1 [ARENARAN A] as the compound, how does the IC50 (HCT-29) read?
Answer: The IC50 was 5.28 µg/mL (≈ 23.7 µM).

Question: What about the IC50 (P388) of the same compound?
Answer: Its IC50 is 3.17 µg/mL (≈ 14.3 µM).

Question: And the IC50 (HT-29)?
Answer: The IC50 was 9.11 µg/mL (≈ 41 µM).

Question: And the IC50 (A549)?
Answer: The IC50 was 9.51 µg/mL (≈ 42.8 µM).
